Measured values taken from patent US20060134774A1, “Detection of protease enzymes” (Marligen Biosciences, Inc., priority 2002, published 2006).

How the values were obtained:
Assay type in all cases: cell-based
[1] = molecular target: T1, caspase-3 (Homo sapiens, UniProt P42574); test: Single-plex assay for active caspase-3 (bead capture of caspase-3/biotin-DEVD-FMK complex from treated cells); settings: human myeloma cell line KAS, 8 hours, 5 uM camptothecin with 1 uM biotin-DEVD-FMK, vs. culture with inhibitor only
T1 construct: endogenous in cells; host or cells: human myeloma cell line KAS
T1 sequence (P42574 29-175 limits assumed): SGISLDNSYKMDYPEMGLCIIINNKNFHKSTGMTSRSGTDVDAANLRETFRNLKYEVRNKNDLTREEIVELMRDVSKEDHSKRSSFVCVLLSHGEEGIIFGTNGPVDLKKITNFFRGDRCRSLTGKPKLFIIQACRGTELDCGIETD
T1 sequence (P42574 176-277 limits assumed): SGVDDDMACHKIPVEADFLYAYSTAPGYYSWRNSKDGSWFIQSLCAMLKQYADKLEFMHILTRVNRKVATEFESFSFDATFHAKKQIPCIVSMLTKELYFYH
Procedure: Preparation of Amine-Reactive Beads
Luminex beads were dispersed by vortexing for 15 seconds followed by sonication in a water bath for 2 minutes. To wash, beads were pelleted by centrifugation for 2 minutes at 12,000×g in a microcentrifuge and then resuspended in 100 ul of water. Beads were pelleted again, resuspended in 80 ul of activation buffer (100 mM sodium phosphate, monobasic pH 6.3), vortexed briefly and sonicated for 30 seconds. Reactive n-hydroxysuccinimide (NHS) esters on the bead surface were prepared by adding 10 ul of 50 mg/ml Sulfo-NHS solution (Pierce, Rockland, Ill.) and 10 ul of 50 mg/ml 1-Ethyl-3-[3-dimethylaminopropyl]carbodiimide Hydrochloride (EDC) to the bead suspension, briefly vortexing, and rotating for 20 minutes in the dark. […]
Human myeloma cell line KAS was cultured in RPMI+10% FBS at 37° C. in the presence of 5% CO2. […] After three washes, the cell pellet was vortexed in lysis buffer containing 50 mM Tris-HCl pH 7.5, 150 mM NaCl, 1 mM EDTA, 0.5% NP40, 0.5% Triton X-100 and protease inhibitors (5 ug/ml leupeptin, 2 ug/ml pepstatin A, 1 mM PMSF (phenyl methyl sulfonyl […]). Lysates were stored overnight at −80° C., thawed on ice, vortexed, and spun at 4° C. for 1 hour at 12,000×g in a micro-centrifuge. Protein concentrations in the cleared supernatants were determined spectrophotometrically using Bradford reagent prior to storage at −80° C. […]

[2] = molecular target: T1, caspase-3; test: Multiplex caspase assay (antibody-coated bead array), caspase-3; settings: myeloma cell line Kas, 8 hours camptothecin + biotin-DEVD-FMK vs. biotin-DEVD-FMK alone
Procedure: (§1) Using the method described in example 1 above Luminex bead sets (colors) 27, 29, and 31 are coupled to antibodies for caspase-3, caspase-7, and caspase 9 respectively. Immediately before using, beads are vortexed for 30 seconds and sonicated for 2 minutes to disperse. Beads are then mixed to provide a 1000 bead/ul (each color) suspension with equivalent representation of each bead set. Cell lysate was prepared from myeloma cell line Kas as describe in example 1. One culture was treated with biotinylated caspase inhibitor biotin-DEVD-FMK for 8 hours and a second culture was treated for 8 hours with the apoptosis inducer camptothecin and biotinylated caspase inhibitor, biotin-DEVD-FMK. A portion of the multiplex bead suspension (2 ul) was incubated with 50 ul of each sample of cell extract diluted to 10 ug/ml in assay buffer (50 mM Tris pH 7.5, 100 mM NaCl, 0.05% tween-20 and 0.1% BSA). Following a 1 hour incubation while shaking in the dark, beads are washed with 100 ul of assay buffer using a filterplate comprising a 1.2 micron PVDF membrane (Millipore). Beads are resuspended in 50 ul of assay buffer containing 2 ug/ml streptavidin-PE conjugate (Pierce) and shaken in the dark for an additional 30 minutes. […] The presence of labeled caspase enzymes on bead surfaces was detected using the Luminex 100 instrumentation. […]

[3] = molecular target: T2, caspase-7 (Homo sapiens, UniProt P55210); test: Multiplex caspase assay (antibody-coated bead array), caspase-7; settings: myeloma cell line Kas, 8 hours camptothecin + biotin-DEVD-FMK vs. biotin-DEVD-FMK alone
T2 construct: endogenous in cells; host or cells: human myeloma cell line KAS
T2 sequence (P55210 24-198 limits assumed): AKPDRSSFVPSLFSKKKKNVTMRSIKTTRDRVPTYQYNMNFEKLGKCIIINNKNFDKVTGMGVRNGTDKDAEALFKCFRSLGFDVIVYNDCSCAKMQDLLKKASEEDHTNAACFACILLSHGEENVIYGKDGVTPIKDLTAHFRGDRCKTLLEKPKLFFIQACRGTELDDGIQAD
T2 sequence (P55210 207-303 limits assumed): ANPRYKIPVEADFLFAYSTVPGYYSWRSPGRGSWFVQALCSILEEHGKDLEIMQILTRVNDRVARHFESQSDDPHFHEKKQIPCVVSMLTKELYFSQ
Procedure: as §1

[4] = molecular target: T3, caspase 9 (Homo sapiens, UniProt P55211); test: Multiplex caspase assay (antibody-coated bead array), caspase 9; settings: myeloma cell line Kas, 8 hours camptothecin + biotin-DEVD-FMK vs. biotin-DEVD-FMK alone
T3 construct: endogenous in cells; host or cells: human myeloma cell line KAS
T3 sequence (P55211 1-416): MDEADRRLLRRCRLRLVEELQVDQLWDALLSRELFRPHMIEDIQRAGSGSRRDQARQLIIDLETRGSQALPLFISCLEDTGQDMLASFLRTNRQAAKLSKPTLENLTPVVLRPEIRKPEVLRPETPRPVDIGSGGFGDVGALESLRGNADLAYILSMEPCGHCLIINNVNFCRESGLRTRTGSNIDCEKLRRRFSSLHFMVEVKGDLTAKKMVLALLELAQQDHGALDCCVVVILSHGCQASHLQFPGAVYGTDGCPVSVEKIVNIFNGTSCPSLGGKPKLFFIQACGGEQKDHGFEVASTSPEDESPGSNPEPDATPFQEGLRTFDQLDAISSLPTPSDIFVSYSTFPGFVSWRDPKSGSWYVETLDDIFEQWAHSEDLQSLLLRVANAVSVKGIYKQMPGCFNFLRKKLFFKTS
Procedure: as §1

[5] = molecular target: T1, caspase-3; test: Competitive multiplex inhibitor assay, caspase-3; settings: myeloma cell line Kas, 8 hours camptothecin + biotin-DEVD-FMK
Excerpt: (§2) In another aspect of the invention a labeled inhibitor and a non-labeled inhibitor are both added to the sample. The non-labeled inhibitor competes with the labeled inhibitor for binding to proteases. With this mode of the invention, new inhibitors may be screened for specificity and the binding constants of new inhibitors may be determined by determining the amount of unlabeled inhibitor necessary to reduce the binding of the labeled inhibitor by a certain amount. Using the methods described in example 2 above Luminex bead sets (colors) 27, 29, and 31 are coupled to antibodies for caspase-3, caspase-7, and caspase 9 respectively. Immediately before using, beads are vortexed for 30 seconds and sonicated for 2 minutes to disperse. Beads are then mixed to provide a 1000 bead/ul (each color) suspension with equivalent representation of each bead set. Cell lysate is prepared from the myeloma cell line Kas as described in Example 1 with the exception that an additional portion of cells is treated for 8 hours with camptothecin, the biotinylated caspase inhibitor biotin-DEVD-FMK and an equal amount of an experimental caspase inhibitor called Mx435. The MX435 inhibitor is not labeled with biotin, and therefore, it competes with the labeled inhibitor for binding to each caspase. […] The presence of labeled caspase enzymes on bead surfaces is detected using the Luminex 100 instrumentation. […]

[6] = molecular target: T2, caspase-7; test: Competitive multiplex inhibitor assay, caspase-7; settings: myeloma cell line Kas, 8 hours camptothecin + biotin-DEVD-FMK
Excerpt: as §2

[7] = molecular target: T3, caspase 9; test: Competitive multiplex inhibitor assay, caspase 9; settings: myeloma cell line Kas, 8 hours camptothecin + biotin-DEVD-FMK
Excerpt: as §2

CC[C@@]1(O)C(=O)OCc2c1cc1n(c2=O)Cc2cc3ccccc3nc2-1 [camptothecin]
caspase 3 activity: signal of biotin-labeled inhibitor bound to captured caspase 3 (FIG. 10) [1]: induced
induction of caspase 3 activity (median fluorescent intensity, FIG. 11) [2]: induced the most
induction of caspase 7 activity (median fluorescent intensity, FIG. 11) [3]: induced
induction of caspase 9 activity (median fluorescent intensity, FIG. 11) [4]: induced the least
induction of caspase 3 activity by camptothecin (median fluorescent intensity, FIG. 12) [5]: induced
induction of caspase 7 activity by camptothecin (median fluorescent intensity, FIG. 12) [6]: induced
induction of caspase 9 activity by camptothecin (median fluorescent intensity, FIG. 12) [7]: induced
